Test results: patent US20210254101A1, “METHODS FOR TREATING SPINAL CORD INJURY” (THE CHILDREN'S MEDICAL CENTER CORPORATION, priority 2018, published 2021)

Experiments:
[1] = system: mice with staggered lesions; assay: Basso Mouse Scale (BMS) open field locomotion after staggered T7/T10 lateral hemisections; type: in vivo; settings: for stepping ability / functional recovery (BMS), chronic compound treatment: daily i.p. treatment from 1 week after injury, BMS about 24 h after previous dose, FIG. 1E, 7A
Description: A staggered lesion paradigm was optimized in which two lateral hemisections were performed at the thoracic (T) 7 and T10 levels simultaneously (FIGS. 1A and 1B), similar to the model previously described (Courtine 2008; van den Brand, 2012). The T10 lesion is a lateral hemisection that ends at the spinal cord midline, while the T7 lesion, contralateral to the T10 lesion, extends slightly beyond the midline (FIG. 1A). With this double hemisection procedure, all descending axons passing T10 are severed, leaving only those crossing the midline between T7 and T10 intact (FIG. 1C). Indeed, by immunohistochemistry with anti-5-HT antibodies, which label serotonergic axons, descending serotonergic axons could be detected in the spinal cord segments between the lesions, but not in the lumbar spinal cord (FIG. 1C). Thus, a relay zone remains between and around the lesions (T7 and T10) where descending axons terminate, and where some propriospinal neurons maintain their connections with lumbar spinal neurons (see herein below).
This double hemisection SCI model was used to seek small molecule compounds that could reactivate the spared, but dormant, spinal connections by monitoring hindlimb motor performance during over-ground locomotion. To this end, daily compound treatment was started 1 week after injury and then monitored the BMS scores approximately 24 hours after the previous day's compound treatment on a weekly basis (FIG. 1D). Behavioral outcomes observed at these time points likely reflect sustained effects of the treatment, which are more clinically relevant.
Surgical Procedures. The procedure of T7 and T10 double lateral hemisection was similar to that described elsewhere (Courtine et al., 2008; van den Brand et al., 2012). Briefly, a midline incision was made over the thoracic vertebrae, followed by a T7-10 laminectomy. For the T7 right side over-hemisection, a scalpel and micro-scissors were carefully used to interrupt the bilateral dorsal column at T7, and ensured no sparing of ventral pathways on the contralateral side (FIG. 1A). For the T10 left hemisection, a scalpel and micro-scissors were carefully used to interrupt only the left side of the spinal cord until the midline. The muscle layers were then sutured, and the skin was secured with wound clips. All animals received post hoc histological analysis, and those with spared 5HT axons at the lumbar spinal cord (L2-5) were excluded for behavioral analysis (FIG. 7).
(§1) Behavioral Experiments. Motor function was evaluated with a locomotor open field rating scale on the Basso Mouse Scale (BMS). For transient pharmacological treatments, ten to fifteen minutes (van den Brand et al., 2012) prior to behavioral tests (grounding walking, all of which were performed individually), mice received systematic administration (i.p.) of the neural modulators listed above. It is important to note that with a single intraperitoneal injection, plasma CNO levels peak at 15 min and become very low by 2 h after injection (Guettier et al., 2009). For chronic pharmacological treatments, 24 hours prior to behavioral tests, mice received systematic administration of the compounds listed above. All behavioral tests were completed within 1-3 hours. For detailed hindlimb kinematic analysis, mice from different groups were placed in the MotoRater (TSE Systems, (Zorner et al., 2010)), and all kinematic analysis was performed based on data collected by the MotoRater.

[2] = Guettier et al., 2009, cited from earlier work
[3] = system: neuropathic pain; settings: animal models; Gagnon et al., 2013; Ferrini et al., 2017; Knabl et al., 2008; cited from earlier work
[4] = system: c-Fos; assay: c-Fos immunoreactivity in spinal cord segments between T7 and T10 after 1 hour walking; type: in vivo, mouse; settings: chronic treatment
Description: In mature neurons, GABA and glycine are inhibitory because they open chloride channels, which allow chloride ion influx leading to hyperpolarization. In contrast, during development, the elevated intracellular chloride levels render GABAA- and glycine-mediated currents depolarizing and generally excitatory. During early postnatal life, KCC2 upregulation in postnatal neurons is crucial for reducing intracellular chloride concentrations, transforming excitation into inhibition (Ben-Ari et al., 2012; Kaila et al., 2014). Thus, injury-induced KCC2 down-regulation (Boulenguez et al., 2010; Cote et al., 2014) would be expected to restore an immature state in which GABA and glycine receptors can depolarize neurons. In this scenario, KCC2 activation in spinal inhibitory neurons would transform local circuits in the relay zone towards a more physiological state, which is more receptive to descending inputs. To examine this, c-Fos immunoreactivity was used as a proxy of neuronal activity in the spinal cord segments between T7 and T10 at 8 weeks after injury, and after walking on a treadmill for 1 hour. In each group, the majority of c-Fos-positive cells in these spinal segments were also positively stained with NeuN, a neuronal marker (FIG. 11A, 11B). In injured mice without treatment, the c-Fos-positive neurons were concentrated in the dorsal horn of the spinal cord (FIG. 5A-5C), perhaps reflecting hypersensitivity to peripheral sensory inputs in these injured mice. […] This KCC2-transformed distribution pattern is similar to what was detected in intact mice, in response to walking (FIG. 5A-5C).
Immunohistochemistry and Imaging. The paraformaldehyde (PFA) fixed tissues were cryo-protected with 30% sucrose and processed using cryostat (section thickness 40 μm for spinal cord). Sections were treated with a blocking solution containing 10% normal donkey serum with 0.5% Triton-100 for 2 hours at room temperature before staining. The primary antibodies (4 □, overnight) used were: rabbit anti-GFAP [DAKO (Z0334), 1:600]; rabbit anti-5-HT [Immunostar (20080), 1:5,000]; chicken anti-GFP [Abcam (ab13970), 1:400]; rabbit anti-RFP [Abcam (ab34771), 1:400]; rabbit anti-PKCγ [Santa Cruz (sc211), 1:100]; rat anti-HA [Sigma (11867423001), 1:200]; rabbit anti-c-Fos [Cell signaling (2250s), 1:100]; and mouse anti-NeuN [Millipore (MAB377), 1:400]. Secondary antibodies (room temperature, 2 h) included: Alexa Fluor 488-conjugated donkey anti chicken and rabbit; and Alexa Fluor 594-conjugated donkey anti rabbit (all from Invitrogen). c-Fos immunoreactivity of spinal neurons was determined as previously described (Courtine et al., 2009), after 1-hour of continuous quadrupedal free walking (intact), stepping (CLP290 or AAV-KCC2 treated mice) or dragging (vehicle or AAV-GFP treated mice). The mice were returned to their cages, and were then anesthetized and sacrificed by intracardial perfusion of 4% PFA (wt/vol) in phosphate buffered saline (PBS) about 2 hours later.

[5] = system: mice with a complete T8 spinal cord transection; assay: BMS open field locomotion after complete T8 spinal cord transection; type: in vivo, mouse; settings: T8 complete transection, FIG. 7F
Description: CLP290's effects could result from reactivating the spared dormant descending connections in the spinal cord after SCI. However, it could also act directly on the lumbar spinal cord, independently of descending inputs. […] Therefore, different from this transient effector that acts directly on the lumbar spinal cord, the effects of CLP290 on functional improvement are dependent on spared connections.
The procedure of T8 full transection was similar to that described elsewhere (Courtine et al., 2009). Briefly, a midline incision was made over the thoracic vertebrae, followed by a T8 laminectomy. The complete T8 transection was then performed carefully using both a scalpel and micro-scissors. The muscle layers were then sutured and the skin was secured with wound clips.
as §1

[6] = T8/9, 8 weeks after injury, FIG. 5A-5C

CCCCNc1cc(C(=O)O)cc(S(N)(=O)=O)c1Oc1ccccc1 [Bumetanide]
stepping ability / functional recovery (BMS), chronic compound treatment [1]: some effects, but without statistical significance

C[N+]1([O-])CCN(C2=Nc3cc(Cl)ccc3Nc3ccccc32)CC1 [CNO, Clozapine N-oxide]
plasma CNO levels ([2]; by 2 h after single intraperitoneal injection): very low
time of peak plasma CNO levels ([2]; single intraperitoneal injection): 15 min

Cn1ncnc1COc1nn2c(-c3cc(F)ccc3F)nnc2cc1C(C)(C)C [L838,417]
effect on neuropathic pain [3]: reduce neuropathic pain
c-Fos-positive neurons in the dorsal horn (laminae I-V) [4, 6]: reduced c-Fos-positive neurons in dorsal horn
c-Fos-positive neurons in the intermediate/ventral spinal cord [4, 6]: without increasing those in intermediate zones and ventral region
neuronal activation levels across spinal cord regions ([4]; staggered injured mice): reduced neuronal activation levels in all spinal cord regions
stepping ability / functional recovery (BMS), chronic compound treatment [1]: failed to promote functional motor recovery

c1ccc2nc(N3CCNCC3)ccc2c1 [quipazine]
BMS improvement measured acutely after compound administration ([5]; 8 weeks, no chronic treatment): rapid, but transient, BMS improvement
duration of acute BMS improvement / locomotion after administration [5]: less than 2 hours
start of acute BMS improvement after administration [5]: 10 min
BMS improvement measured acutely after compound administration ([1]; staggered lesion, 8 weeks after SCI, FIG. 7B): rapid, but transient, BMS improvement
duration of acute BMS improvement / locomotion after administration ([1]; staggered lesion, FIG. 7B): less than 2 hours
start of acute BMS improvement after administration ([1]; staggered lesion, FIG. 7B): 10 min
